The test system of test [1] is human iPSC-derived MACS-sorted CD34+ cells. Description: Hematopoietic CFU assays of human iPSC-derived MACS-sorted CD34+ cells. In kind it is cell-based. The following applies: 20,000 hCD34+ cells per sample. The procedure:
Embryoid body and hemogenic endothelium differentiation was performed as described in (Sugimura et al. 2017; Ditadi et al. 2015). Briefly, hiPSC colonies were dissociated with 0.05% trypsin for 5 min at 37° C., washed with PBS+2% FBS, and resuspended in StemPro-34 (Invitrogen, 10639-011) supplemented with L-glutamine (2 mM), penicillin/streptomycin ([…]), ascorbic acid (1 mM), human holo-Transferrin ([…], Sigma T0665), monothioglycerol (MTG, 0.4 mM), BMP4 (10 ng/ml), and Y-27632 (10 μM). Five million cells were seeded into 10 cm dishes (Ezsphere, Asahi Glass) for the spheroid formation. On Day 1, bFGF (5 ng/ml) and BMP4 (10 ng/ml) was added to the medium. On Day 2, the media was changed with the StemPro-34 supplemented with SB431542 (6 μM), CHIR99021 (3 μM), bFGF (5 ng/ml), and BMP4 (10 ng/ml). On Day 3, the medium was replaced with StemPro-34 supplemented with VEGF (15 ng/ml) and bFGF (10 ng/ml). On day 6, the medium was changed to StemPro-34 supplemented with bFGF (5 ng/ml), VEGF (15 ng/ml), interleukin (IL)-6 (10 ng/ml), IGF-1 (25 ng/ml), IL-11 (5 ng/ml), SCF (50 ng/ml) and EPO (2IU). The cells were maintained in a 5% CO2, 5% O2 and 95% humidity incubator. All cytokines were purchased from Peprotech. […]

A further test deals with Dnmt3a. Put plainly: Dnmt3a protein level in nuclear fractions of E11.5 AGM cells. In kind it is cell-based, mouse. The procedure: RNA-sequencing analyses were performed to measure gene expression patterns in mouse AGM treated with cyclic strain or pharmacological modulators. Using computational algorithms, hierarchical clustering was performed of differentially expressed genes as well as measured their overrepresented biological processes and pathways. Gene expression clusters of differentially expressed genes were analyzed and their mean expression level across cell populations compared. Next, Venn comparison of up- and down-genes was constructed to analyze candidate(s) important for cyclic strain- or pharmacological modulator(s)-mediated the endothelial-to-HSC transition. Furthermore, Dnmt3b and Dnmt3a protein expressions were analyzed in nuclear fractions of mouse AGM cells using EqiQuick assay kits. Data are presented as mean±s.d. unless otherwise noted. Statistical analyses were performed by paired or un-paired Student's t-tests. Significance was set at P<0.05.
Nuclear extracts from AGM explants were harvested using an EpiQuik Nuclear Extraction Kit (Epigentek Group Inc.). Dnmt3b and Dnmt3a protein levels were analyzed using a colorimetric EpiQuik Assay Kit (Epigentek Group Inc.), according to the manufacturer's instructions. Concentration of Dnmt3b and Dnmt3a is relative to 1 μg of nuclear extract proteins.

Entries after “also recorded” stand apart in the source; their conditions may differ.

Consider `Clc1cccc(Cl)c1CSc1nnc(-c2cnccn2)s1` [Yoda1, 2-[5-[[(2,6-Dichlorophenyl)methyl]thio]-1,3,4-thiadiazol-2-yl]-pyrazine], for which the “multipotent GEMM progenitor formation” value in test [1] was “elevated multipotent hematopoietic progenitor formation and human hematopoiesis; also recorded: stimulates multipotent GEMM progenitor formation and human hematopoiesis”. The Dnmt3a protein expression result in the test on Dnmt3a is reported as “not Dnmt3a; also recorded: without impacting the expression of Dnmt3a”.

The values above are taken from US20230041065A1, “METHODS FOR GENERATING HEMATOPOIETIC STEM CELLS” (The Brigham and Women`s Hospital, Inc., priority 2019, published 2023).
